In a melting point compilation (Tetko et al.; mined from patent text by program, amines drawn as free bases though some values may be those of a salt):

melting point [°C]	SMILES
104 to 105	Cn1nc(N)nc1NCCCOc1ccc(CN2CCCCC2)cc1
98 to 105	COC(=O)c1ccc(-c2nnc(CSCCCCOc3ccccc3)o2)cc1
35 to 36	CCCCC(CC)COC(=O)c1cc(OC)c(O)c(OC)c1 (centres undefined)
161 to 163	Cc1nc(-c2ccc(C(F)(F)F)cc2)sc1CSc1cc(C(C)C)c(OCC(=O)O)c(C(C)C)c1
152 to 153	CCCCCCCCCCCCc1c[nH]c(C(=O)O)c1
219	CN1CCN(c2ccc(-c3cnc4c(c3)N(Cc3c(F)ccc(F)c3Cl)CCN4)cn2)CC1
310 to 320	C[C@@H](NC(=O)c1c[nH]c2ncc(-c3nn(C)c4ccsc34)nc12)C(=O)N1CC(C#N)C1
162	O=C(C(Cl)=CO)c1ccc(Cl)cc1Cl
146 to 149	Cc1cc2c(c3c1NC(=O)CC3)OC(CN=[N+]=[N-])C2 (centres undefined)
196 to 197	CC1(C)OC(=O)C(Oc2ccc(Cl)nc2)=C1c1ccc(S(C)(=O)=O)cc1
293 to 296	Oc1ccc(-c2nc3ccc(O)cc3o2)c(O)c1
230	O=C(O)c1ccc(-c2cn(-c3ccc(OC(F)(F)F)cc3)cn2)cc1
39 to 39.5	Cc1ccc(S(=O)(=O)OCCc2ccccc2Br)cc1
95 to 97	CN1Cc2cccc(Cl)c2S1(=O)=O
221	CNC(=O)Nc1snc(N(C)C)c1C(N)=O
134 to 135	CCOc1nn(-c2ccc(C(F)(F)F)cn2)cc1CCOc1ccccc1CC(=O)O
102 to 104	O=C(O)CCCCC1NC(=O)OC1=O (centres undefined)
152 to 153	O=C(Cc1cc(F)ccc1F)N1CCNc2ncc(I)cc21
50 to 51	C#Cc1ccc(C(=O)NCC(N)C(c2ccccc2)(c2ccccc2)c2ccccc2)cc1 (centres undefined)
225 to 227	Cc1cc(C)c2c(n1)Nc1cc(C)c(C)cc1N(C)C2=O
202 to 204	O=c1cc(-c2ccc(Cl)cc2)sc(N2CCOCC2)c1
53 to 55	CC(C)C[C@@H](C(=O)O)N(C)C(=O)OC(C)(C)C
198 to 200	CC(C)(COc1nn2ccnc2c2c1CCCC2)CS(N)(=O)=O
83 to 84	COC(=O)CC1(C)C(=O)N(C)c2ccc(OC)cc21 (centres undefined)

melting point [°C]	SMILES
121 to 122	OC(CNc1ccccc1)c1cc(C(F)(F)F)nc2c(C(F)(F)F)cccc12 (centres undefined)
110 to 111	FC(F)(F)c1snc(-c2c(Cl)cc(Cl)c3nc(C4CC4)oc23)c1Cl
123	CC(C)Nc1cncc(C(=NCCO[N+](=O)[O-])NC#N)c1
213 to 220	CCS(=O)(=O)c1sc(S(N)(=O)=O)cc1C(C)NC(C)=O (centres undefined)
138 to 139	Cc1nc2cc(C(=O)Nc3ccccc3)ccc2o1
170 to 171	CCC(=O)Nc1cc(F)ccc1C(=O)O
152	Cc1sc2nc(N(CCO)CCO)nc(NCc3ccccn3)c2c1Br
209 to 212	CN1C(c2ccc3ccccc3c2)CC(=O)CC1c1ccc2ccccc2c1 (centres undefined)
310 to 311	COc1ccc(-c2c[nH]c3cc(OC)c(OC)cc3c2=O)cc1
237	Cc1cc(-c2cnn3c(C(F)(F)F)cc(-c4ccc(C(F)(F)F)c(C)c4)nc23)ccn1
126 to 129	O=C(OC(=O)c1ccccc1S(=O)(=O)O)c1ccccc1S(=O)(=O)O
112 to 115	NC(=O)c1[nH]nc([C@@H]2O[C@H](CO)[C@@H](O)[C@H]2O)c1O
175 to 180	O=C(O)CCCS(=O)(=O)NC(=O)CCC(F)(F)C(F)(F)C(F)(F)C(F)(F)C(F)(F)C(F)(F)F
207 to 209	COc1cc(Nc2ncc3c(n2)C(C)(c2ccccc2)CCC3)ccc1-n1cnc(C)c1 (centres undefined)
203 to 205	O=C(C=Cc1ccc(O)c([N+](=O)[O-])c1)NC1CCc2ccccc21 (centres undefined)
175 to 176	O=C1Nc2c(Cl)cc(Cl)cc2C12CCCC2
240	Cc1ccc(C=CC(=O)N2CCc3c([nH]c4ccccc34)C2c2ccc3c(c2)OCO3)cc1 (centres undefined)
303 to 305	O=c1[nH]c2ncc(-c3ccc(-c4n[nH]c(C(F)(F)F)n4)cc3)nc2n1CC1CCCCC1
198	COC(=O)CCn1c(C(=O)OCc2ccccc2)cc2c(C)c(C)c(OC)cc21
164	CCc1cc(C#N)cc(C(=O)Nc2ccn(C)n2)n1
110 to 111	Cc1cc(C)c(NCCC(N)=S)cc1C
160	O=C(O)/C(=C/c1ccccc1)CSC(=O)c1ccccc1
209 to 210	Nc1ccc(S(=O)(=O)Nc2nnc(CC(=O)O)s2)cc1
265 to 268	O=C1Nc2cc(CN3CCN(c4ccc(Cl)cc4)CC3)cnc2N2CCC[C@@H]12

melting point [°C]	SMILES
138 to 140	CS(=O)(=O)N(C(=O)OCc1ccccc1)c1cc(O)ccc1OCc1ccccc1
130 to 132	CCCSC(C(N)=O)c1cc(C)cc(C(=O)c2ccc(F)cc2)c1N (centres undefined)
124 to 127	COC(=O)c1csc(-c2cc3ccccc3n2C)n1
98	O=S(=O)(On1nnc2ccccc21)c1cccnc1
153	NC(=O)[C@H](Cc1cccnc1)NC(=O)OCc1ccccc1
157	O=C1CCSC(=S)N1c1ccccn1
108 to 109	CC(C)(C)c1ccc(N2C[C@@H](COS(C)(=O)=O)CC2=O)cc1
152 to 154	O=C1CCCC(=O)N1c1cc(Br)cc(Br)c1
125 to 127	COc1ccc(-n2cnc3ccc(-c4nnc(CCc5cccc(C#N)c5)o4)cc32)cc1
137 to 140	c1ccc(OCc2ccc3ccccc3n2)c(OCCCc2nnn[nH]2)c1
160 to 162	CC(C)OC(=O)N1c2cncnc2NC(=O)C1C (racemic)
215 to 217	CC(C)n1nc(-c2c(OCC(=O)O)nc(N)nc2-c2ccccc2)ccc1=O
246 to 248	C#Cc1cc2cn[nH]c2c(C(=O)NC2(C3CC3)CC2)c1NC(=O)c1cc(C(F)(F)F)nn1-c1ncccc1Cl
73 to 75	CC(=NOCc1cc(C(F)(F)F)ccc1C(F)(F)F)c1cc(Cl)ccc1NS(=O)(=O)C(F)(F)F
158 to 159	O=C1OCCN1CCN1CCN(C2Cc3cc(F)ccc3Sc3ccccc32)CC1 (centres undefined)
136 to 137	Cc1n[nH]c2cc(-c3ccc4nnn(Cc5ccc6ncccc6c5)c4n3)ccc12
102 to 103	CCCOc1ccc(Cl)c2c(=O)c3ccccc3sc12
160	Cc1cccnc1COc1nn2c(-c3ccccc3)nnc2cc1N1CCCCC1
196	Nc1ccc2ccc(Oc3ccccc3)nc2n1
64 to 65	CCOC(=O)CCCCCCn1cnc2ccncc21
84 to 86	Cn1cccc1Cc1cccc(NC(N)=O)c1
88	CCOC(=O)Nc1csc2cc(OC)ccc12
68 to 70	c1ccc(C2CN3CCN=C3S2)cc1 (centres undefined)

SMILES	melting point [°C]
[N-]=[N+]=Nc1cccc2cccc(O)c12	65 to 67
COc1ccc2c(c1)C13CCN(C)C(C2)C1(O)C=CC(=O)C3 (centres undefined)	213 to 215
CN1CCN(C(=O)OC2c3ccccc3C(=O)N2c2ccc3cccnc3n2)CC1 (centres undefined)	183
